Three molecules from patent publication US20190167569A1, “ENHANCED HERBAL EXTRACTION AND TRANSDERMAL DELIVERY” (priority 2016, published 2019) can be followed below.

Series [1] is classed as in vitro ADME. On the procedure: (§1) The diffusion rates of different rosemary extract solutions through diffusion cells that mimic human skin were calculated and analyzed using UV-VIS spectrophotometry to measure rosmarinic acid content. Franz diffusion cells from Permegear, USA, with 47 mm, 200 nm inert polycarbonate membrane filters, were used with 5 ml extract solution samples. The speed of diffusion of different rosemary extracts were calculated at 1, 2, 3, 4, 10, 20, 30, 60, 120, 360 minutes (and up to 1 day of duration) at a rotational speed of 50 rpm to mimic a dermal application. The amount of rosmarinic acid that passed through the filter was determined by absorbance graphics on a UV spectrophotometer (Agilent 8453). A standard calibration curve was determined for rosmarinic acid and the absorbances were measured at 323 nm to determine the % concentrations released.
For a reference or baseline sample, a decoction of rosemary in water alone was prepared at a 1:5 ratio.
A soapwort decoction (an extraction medium with a saponin content) was prepared in water at a 1:5 ratio. A consequent decoction of rosemary (i.e., a rosemary extract solution) was prepared in the mentioned soapwort decoction at a 1:5 ratio. […] Thus, the transdermal delivery of rosmarinic acid using the method of the present invention is much faster than classical water decoctions predominantly used in modern dermal or cosmetic formulations.
as §1, with “5, 40” for “4, 10, 20, 30, 60, 120, 360”
A soapwort decoction (an extraction medium with a saponin content) was prepared in water at a 1:5 ratio. A decoction of rosemary (i.e., a rosemary extract solution) was prepared in 5×distilled water. The mentioned soapwort decoction and the water decoction of the rosemary leaves were then mixed at a 1:1 ratio. The following diffusion values were measured for this mixture: 14% at minute 1, 49.4% at minute 3, and 100% at minute 5.
The diffusion rates of rosemarinic acid in rosemary essential oil through diffusion cells that mimic human skin were calculated and analyzed using UV-VIS spectrophotometry to measure rosmarinic acid content. Franz diffusion cells from Permegear, USA, with 47 mm, 200 nm inert polycarbonate membrane filters, were used with 5 ml extract solution samples. The speed of diffusion of different rosemary extracts were calculated at 1, 2, 3, 4, 7, 10, 20, 40 minutes (and up to 1 day of duration) at a rotational speed of 50 rpm to mimic a dermal application. The amount of rosmarinic acid that passed through the filter was determined by absorbance graphics on a UV spectrophotometer (Agilent 8453). A standard calibration curve was determined for rosmarinic acid and the absorbances were measured at 323 nm to determine the % concentrations released.

A short description of series [2]: Diffusion of carvacrol in thyme essential oil through Franz diffusion cells that mimic human skin (UV-VIS, 272 nm). It counts as in vitro ADME. On the procedure:
The diffusion rates of carvacrol in thyme (Tymus vulgaris) essential oil through diffusion cells that mimic human skin were calculated and analyzed using UV-VIS spectrophotometry to measure carvacrol content. Franz diffusion cells from Permegeaer, USA, with 47 mm, 200 nm inert polycarbonate membrane filters, were used with 5 ml extract solution samples. […] The amount of carvacrol that passed through the filter was determined by absorbance graphics on a UV spectrophotometer (Agilent 8453). A standard calibration curve was determined for carvacrol and the absorbances were measured at 272 nm to determine the % concentrations released.
The diffusion rates of carvacrol in thyme (Tymus vulgaris) essential oil (0.05 ml of thyme essential oil) dispersed in 1 ml of soapwort extract solution through diffusion cells that mimic human skin were calculated and analyzed using UV-VIS spectrophotometry to measure carvacrol content. Franz diffusion cells from Permegear, USA, with 47 mm, 200 nm inert polycarbonate membrane filters, were used with 5 ml extract solution samples. The speed of diffusion of different thyme extracts were calculated at 1, 3, 5, 7, 10, 20, 40 minutes (and up to 1 day of duration) at a rotational speed of 50 rpm to mimic a dermal application. The amount of carvacrol that passed through the filter was determined by absorbance graphics on a UV spectrophotometer (Agilent 8453). A standard calibration curve was determined for carvacrol and the absorbances were measured at 272 nm to determine the % concentrations released.
The diffusion rates of carvacrol in thyme (Tymus vulgaris) essential oil (0.05 ml of thyme essential oil dispersed in 1 ml of licorice extract solution) through diffusion cells that mimic human skin were calculated and analyzed using UV-VIS spectrophotometry to measure carvacrol content. Franz diffusion cells from Permegeaer, USA, with 47 mm, 200 nm inert polycarbonate membrane filters, were used with 5 ml extract solution samples. The speed of diffusion of different thyme extracts were calculated at 1, 2, 3, 4, 7, 10, 20, 30, 40 minutes (and up to 1 day of duration) at a rotational speed of 50 rpm to mimic a dermal application. The amount of carvacrol that passed through the filter was determined by absorbance graphics on a UV spectrophotometer (Agilent 8453). A standard calibration curve was determined for carvacrol and the absorbances were measured at 272 nm to determine the % concentrations released.

Series [3] is classed as physicochemical. On the procedure: 100% of the carvacrol present in soapwort extract solution was released at the end of 40 minutes whereas about 90% of carvacrol present in licorice extract solution at the end of 40 minutes. When the solubilities were compared, it was observed that 0.5% of thyme oil was clearly dissolved in soapwort water extract and maximum 2% of thyme oil could be homogenously dispersed in soapwort. The maximum amount of thyme oil dissolved in licorice was 0.5%. Absorbance results clearly indicate that soapwort water extract has higher potential to dissolve and diffuse carvacrol of Thyme essential oil than does licorice.

Read-outs that look alike come from different tables or passages of the source.

Regarding `O=C(/C=C/c1ccc(O)c(O)c1)O[C@H](Cc1ccc(O)c(O)c1)C(=O)O` [Rosmarinic Acid, rosmarinic acid], in series [1], the absorbance values entry is “minimal”, the “fraction of the control sample diffusion time” value was 1/30, the “penetration rate relative to control sample (only water decoction of rosemary)” value is “approximately 30 ×” and the “transdermal delivery (in words)” value is given as “negligible”. Besides, the rosemarinic acid released in series [1] (40 min) is 0%. Also, the “rosmarinic acid content passed through the membrane” value in series [1] (150 min) turned out to be 100%.

On to `Cc1ccc(C(C)C)cc1O` [carvacrol], for which the diffusion in series [2] (0.05 ml thyme essential oil in 1 ml licorice extract solution, after 24 hours) came out at 100%. Also, the diffusion value in series [2] (0.05 ml thyme essential oil in 1 ml licorice extract solution, minute 1) turned out to be 0%; in series [2] (0.05 ml thyme essential oil in 1 ml licorice extract solution, minute 2), 3.98%; in series [2] (0.05 ml thyme essential oil in 1 ml licorice extract solution, minute 3) it was 14.41%; in series [2] (0.05 ml thyme essential oil in 1 ml licorice extract solution, minute 4), 32.98%; in series [2] (0.05 ml thyme essential oil in 1 ml licorice extract solution, minute 7) it was 42.59%; in series [2] (0.05 ml thyme essential oil in 1 ml licorice extract solution, minute 10) it was 56.35%. Moreover, the diffusion value in series [2] (0.05 ml thyme essential oil in 1 ml licorice extract solution, minute 20) came out at 67.61%; in series [2] (0.05 ml thyme essential oil in 1 ml licorice extract solution, minute 30) it was 77.73%; in series [2] (0.05 ml thyme essential oil in 1 ml soapwort extract solution, minute 1), 8.20%; in series [2] (0.05 ml thyme essential oil in 1 ml soapwort extract solution, minute 3), 26.43%; in series [2] (0.05 ml thyme essential oil in 1 ml soapwort extract solution, minute 5) it was 44.75%; in series [2] (0.05 ml thyme essential oil in 1 ml soapwort extract solution, minute 7), 66.29%. In addition, the diffusion value in series [2] (0.05 ml thyme essential oil in 1 ml soapwort extract solution, minute 10) is reported as 77.15%; in series [2] (0.05 ml thyme essential oil in 1 ml soapwort extract solution, minute 20) it was 91.39%; in series [2] (0.05 ml thyme essential oil in 1 ml soapwort extract solution, minute 40), 100%. Further, the “transdermal delivery (in words)” value in series [2] (thyme essential oil alone) is recorded as “negligible”. Besides, the carvacrol released in series [2] (thyme essential oil alone, end of 40 minutes) is on record as 0%. The absorbance values entry in series [2] (thyme essential oil alone, end of 48 hours) was “minimal”.

Regarding thyme oil, the “maximum amount homogenously dispersed in soapwort” value in series [3] came out at 2%.
